Results: patent publication US9120761B2, “Selective FAK inhibitors” (priority 2011, dated 2015)
Like-named read-outs stand apart in the source and are kept apart here.

How the values were obtained:
[1] = molecular target: N-terminally GST-fused purified FAK enzyme (Homo sapiens (Human), UniProt Q05397); test: FAK Biacore SPR assay; assay type: binding
Description: Binding parameters of compounds were determined using a Biacore™ S51 sensor. An anti-GST antibody was immobilized onto a CM5 chip by primary amine-coupling in accordance with the manufacturer's recommendations.
Concentration series' of the test compounds were injected over the spots at 25° C.
After the injection cycle of a compound the chip surface was regenerated with 10 mM glycine-HCl, pH2.2 before capturing the enzyme again.

[2] = system: MDA-231-LNA cells; test: 2D cellular proliferation assay; assay type: cell-based; conditions: 72 h, 3 days incubation, resazurin
[3] = molecular target: VEGFR3 cytoplasmic domain (Homo sapiens, UniProt P35916); test: VEGFR3 biochemical assay (Alpha Screen); conditions: N-terminal GST-fusion protein (amino acids 798-1298), 500 μM ATP
VEGFR3 cytoplasmic domain (Homo sapiens, UniProt P35916), sequence (P35916 25-1363 limits assumed): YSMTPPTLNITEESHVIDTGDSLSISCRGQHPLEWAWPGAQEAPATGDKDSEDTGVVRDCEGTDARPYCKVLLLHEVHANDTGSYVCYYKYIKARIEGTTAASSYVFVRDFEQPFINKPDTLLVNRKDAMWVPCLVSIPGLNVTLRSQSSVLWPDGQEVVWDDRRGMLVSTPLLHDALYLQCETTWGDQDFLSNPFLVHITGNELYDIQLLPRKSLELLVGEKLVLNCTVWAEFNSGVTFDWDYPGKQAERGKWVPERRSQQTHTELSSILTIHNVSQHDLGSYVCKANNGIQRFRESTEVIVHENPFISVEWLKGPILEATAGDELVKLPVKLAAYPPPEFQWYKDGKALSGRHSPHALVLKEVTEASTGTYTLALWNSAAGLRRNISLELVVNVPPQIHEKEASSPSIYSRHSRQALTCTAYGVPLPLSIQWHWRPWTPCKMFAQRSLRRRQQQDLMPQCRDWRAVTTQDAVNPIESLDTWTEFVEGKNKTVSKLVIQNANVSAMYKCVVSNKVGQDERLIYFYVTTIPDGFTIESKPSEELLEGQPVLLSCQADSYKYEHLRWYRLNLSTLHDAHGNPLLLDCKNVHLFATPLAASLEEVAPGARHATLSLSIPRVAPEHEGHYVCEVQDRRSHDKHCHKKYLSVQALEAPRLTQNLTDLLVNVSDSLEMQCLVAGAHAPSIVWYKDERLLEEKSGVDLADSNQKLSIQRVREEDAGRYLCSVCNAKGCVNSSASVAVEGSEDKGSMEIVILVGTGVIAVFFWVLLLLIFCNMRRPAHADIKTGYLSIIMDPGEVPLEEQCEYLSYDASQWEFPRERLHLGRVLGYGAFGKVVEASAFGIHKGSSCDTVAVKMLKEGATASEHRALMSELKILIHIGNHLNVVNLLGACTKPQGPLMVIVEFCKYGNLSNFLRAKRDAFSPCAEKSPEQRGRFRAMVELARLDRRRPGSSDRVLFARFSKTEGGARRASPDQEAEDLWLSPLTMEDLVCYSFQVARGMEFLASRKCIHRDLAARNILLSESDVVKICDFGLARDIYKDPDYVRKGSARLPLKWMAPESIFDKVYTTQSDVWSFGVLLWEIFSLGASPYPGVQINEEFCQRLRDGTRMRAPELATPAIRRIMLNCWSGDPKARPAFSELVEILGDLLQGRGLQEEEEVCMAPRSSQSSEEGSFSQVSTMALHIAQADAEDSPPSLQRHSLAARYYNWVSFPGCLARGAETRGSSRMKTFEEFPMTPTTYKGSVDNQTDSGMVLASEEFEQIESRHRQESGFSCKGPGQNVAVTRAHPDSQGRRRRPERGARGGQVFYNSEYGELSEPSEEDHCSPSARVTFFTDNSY

[4] = system: MDA-231-LNA tumours; test: Combination study efficacy and tolerability with dasatinib, IMFP MDA-231-LNA tumours; assay type: in vivo; conditions: Compound 3 40 mg/kg p.o. BID, dasatinib 30 mg/kg p.o. BID; Balb/c SCID mice, MDA-231-LNA primary tumour
Description: Treatment commenced when tumours were palpable (day 9 post cell injection) and continued for the duration of the experiment. The formulations used were the same as those above, with the vehicle (I-IPMC-SV, 0.2 ml), being administered as a control.
As additional markers of potential hepatotoxicity, liver weight at harvest as well as alanine aminotransferase (ALT) and aspartate transaminase (AST) levels were determined in plasma 12 hours after the final dose of drug.

[5] = molecular target: FAK enzyme (catalytic domain, amino acids 411-686) (Homo sapiens (Human), UniProt Q05397); test: FAK biochemical Alpha Screen assay; conditions: 80 μM ATP
FAK enzyme (catalytic domain, amino acids 411-686), sequence (Q05397 411-686): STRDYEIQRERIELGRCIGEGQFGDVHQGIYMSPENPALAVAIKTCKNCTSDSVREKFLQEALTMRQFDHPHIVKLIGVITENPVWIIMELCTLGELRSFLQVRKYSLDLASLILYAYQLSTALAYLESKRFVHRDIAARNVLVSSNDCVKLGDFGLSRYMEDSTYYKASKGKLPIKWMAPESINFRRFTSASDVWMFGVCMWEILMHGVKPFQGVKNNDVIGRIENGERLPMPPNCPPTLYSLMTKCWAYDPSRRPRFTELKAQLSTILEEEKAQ

[6] = molecular target: VEGFR3 cytoplasmic domain (Homo sapiens, UniProt P35916, DEL949-1002); test: VEGFR3 biochemical assay (Alpha Screen); conditions: modified form (*): N-terminal Hexa-His-fusion protein, amino acids 818-1177 lacking 949-1002
VEGFR3 cytoplasmic domain (Homo sapiens, UniProt P35916, DEL949-1002), sequence (P35916 with tags, fused parts or gaps DEL949-1002 limits assumed): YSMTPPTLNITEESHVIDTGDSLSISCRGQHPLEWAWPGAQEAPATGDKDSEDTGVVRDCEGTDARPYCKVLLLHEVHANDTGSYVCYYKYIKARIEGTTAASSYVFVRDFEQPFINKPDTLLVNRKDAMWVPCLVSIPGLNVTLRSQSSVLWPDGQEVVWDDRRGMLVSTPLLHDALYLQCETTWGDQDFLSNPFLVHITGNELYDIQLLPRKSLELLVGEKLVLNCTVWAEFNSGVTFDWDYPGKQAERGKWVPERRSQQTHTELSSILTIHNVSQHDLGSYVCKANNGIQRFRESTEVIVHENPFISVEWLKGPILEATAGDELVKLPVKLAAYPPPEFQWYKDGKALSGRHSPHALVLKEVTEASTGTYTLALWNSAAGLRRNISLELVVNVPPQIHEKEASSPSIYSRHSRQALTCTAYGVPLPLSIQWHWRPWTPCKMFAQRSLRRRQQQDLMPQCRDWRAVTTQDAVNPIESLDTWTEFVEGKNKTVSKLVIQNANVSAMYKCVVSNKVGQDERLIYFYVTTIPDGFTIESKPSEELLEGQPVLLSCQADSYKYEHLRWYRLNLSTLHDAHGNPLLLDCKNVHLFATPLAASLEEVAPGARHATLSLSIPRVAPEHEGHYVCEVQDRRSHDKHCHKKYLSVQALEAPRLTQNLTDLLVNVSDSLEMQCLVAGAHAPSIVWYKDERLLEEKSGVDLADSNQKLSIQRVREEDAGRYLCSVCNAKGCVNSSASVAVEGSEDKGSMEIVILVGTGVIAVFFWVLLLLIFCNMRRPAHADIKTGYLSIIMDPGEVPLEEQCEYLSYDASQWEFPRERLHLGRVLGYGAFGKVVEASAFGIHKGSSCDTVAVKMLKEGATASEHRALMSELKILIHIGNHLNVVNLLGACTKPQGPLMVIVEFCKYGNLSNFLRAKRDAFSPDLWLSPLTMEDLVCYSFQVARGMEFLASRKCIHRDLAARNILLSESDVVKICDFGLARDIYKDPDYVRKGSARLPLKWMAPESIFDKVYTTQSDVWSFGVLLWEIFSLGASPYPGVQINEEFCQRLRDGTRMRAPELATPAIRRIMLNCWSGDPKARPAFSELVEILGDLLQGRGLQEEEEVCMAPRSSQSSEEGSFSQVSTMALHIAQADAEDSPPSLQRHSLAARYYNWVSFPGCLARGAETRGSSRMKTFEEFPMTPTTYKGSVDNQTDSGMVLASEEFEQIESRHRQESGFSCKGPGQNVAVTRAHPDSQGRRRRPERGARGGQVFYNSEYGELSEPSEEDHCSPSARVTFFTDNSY

[7] = molecular target: FAK (Homo sapiens (Human), UniProt Q05397); conditions: in vitro; cited from earlier work
FAK, sequence (Q05397 whole entry): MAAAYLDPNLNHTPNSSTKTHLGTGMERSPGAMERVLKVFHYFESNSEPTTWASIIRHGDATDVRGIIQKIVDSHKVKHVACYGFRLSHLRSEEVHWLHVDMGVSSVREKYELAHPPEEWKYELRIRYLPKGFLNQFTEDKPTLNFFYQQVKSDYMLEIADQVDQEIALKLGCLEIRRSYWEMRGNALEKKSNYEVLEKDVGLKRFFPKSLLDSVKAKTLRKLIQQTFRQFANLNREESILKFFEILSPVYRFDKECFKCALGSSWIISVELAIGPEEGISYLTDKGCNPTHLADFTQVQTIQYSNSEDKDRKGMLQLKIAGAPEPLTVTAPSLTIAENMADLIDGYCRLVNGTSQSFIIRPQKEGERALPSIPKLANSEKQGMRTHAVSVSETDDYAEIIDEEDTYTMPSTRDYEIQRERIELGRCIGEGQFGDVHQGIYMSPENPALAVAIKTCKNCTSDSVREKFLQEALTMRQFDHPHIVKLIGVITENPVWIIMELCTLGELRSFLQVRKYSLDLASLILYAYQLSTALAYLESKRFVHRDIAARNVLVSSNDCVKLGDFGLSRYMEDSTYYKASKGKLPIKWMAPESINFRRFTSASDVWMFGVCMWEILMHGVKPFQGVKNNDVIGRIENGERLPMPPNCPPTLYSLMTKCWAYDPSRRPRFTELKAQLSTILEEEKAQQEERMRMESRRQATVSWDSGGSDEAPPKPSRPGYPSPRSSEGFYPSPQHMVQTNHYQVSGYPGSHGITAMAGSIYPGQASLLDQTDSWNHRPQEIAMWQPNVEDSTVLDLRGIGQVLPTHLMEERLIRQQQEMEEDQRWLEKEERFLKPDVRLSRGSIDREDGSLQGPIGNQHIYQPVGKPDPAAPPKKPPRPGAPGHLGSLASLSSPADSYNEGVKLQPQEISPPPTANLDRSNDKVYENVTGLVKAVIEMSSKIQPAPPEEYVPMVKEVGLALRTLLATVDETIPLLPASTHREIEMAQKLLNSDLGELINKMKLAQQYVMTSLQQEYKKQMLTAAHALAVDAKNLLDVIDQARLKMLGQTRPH

[8] = system: HeyA8, SKOV3ip1, and HeyA8-MDR models; conditions: cited from earlier work
[9] = system: taxane-sensitive (SKOV3ip1 and HeyA8) and taxane-resistant (HeyA8-MDR) ovarian cancer cell lines; conditions: cited from earlier work

N-terminally GST-fused purified FAK enzyme, sequence (Q05397 whole entry, the tested form may be a part): as the sequence (Q05397 whole entry) above

SMILES	IC50 [2]	IC50 [3]	IC50 [5]	Kd ([1]; Biacore S51, 25° C.)	IC50 [6]	other results
COc1cc(C2CCN(C)CC2)ccc1Nc1ncc(C(F)(F)F)c(CCc2ccccc2CC(N)=O)n1 [Compound 3, 2-(2-(2-(2-((2-Methoxy-4-(1-methylpiperidin-4-yl)phenyl)amino)-5-(trifluoromethyl)pyrimidin-4-yl)ethyl)phenyl)acetamide]	6620 nM	538 nM	2.2 nM			Kd ([1]; Biacore S51, measured using an extended washing step of 30 minutes): 0.21 nM; TGI based on tumour weight [4]: 42%
COc1cc(C2CCNCC2)ccc1Nc1ncc(C(F)(F)F)c(CCc2ccccc2CC(N)=O)n1 [Compound 2, 2-(2-(2-(2-((2-Methoxy-4-(piperidin-4-yl)phenyl)amino)-5-(trifluoromethyl)pyrimidin-4-yl)ethyl)phenyl)acetamide]	2770 nM		7.1 nM	0.74 nM	3680 nM	
CCN1CCC(c2ccc(Nc3ncc(C(F)(F)F)c(CCc4ccccc4CC(N)=O)n3)c(OC)c2)CC1 [Compound 4, 2-(2-(2-(2-((4-(1-Ethylpiperidin-4-yl)-2-methoxyphenyl)amino)-5-(trifluoromethyl)pyrimidin-4-yl)ethyl)phenyl) acetamide]	1910 nM		3.6 nM	1.5 nM		
CN1CCC(c2ccc(Nc3ncc(C(F)(F)F)c(CCc4ccccc4CC(N)=O)n3)c(F)c2)CC1 [Compound 13, 2-(2-(2-(2-((2-Fluoro-4-(1-methylpiperidin-4-yl)phenyl)amino)-5-(trifluoromethyl)pyrimidin-4-yl)ethyl)phenyl)acetamide]	2760 nM	205 nM	5.6 nM			
CNC(=O)c1ccccc1Nc1nc(Nc2ccc(N3CCOCC3)cc2OC)ncc1Cl [TAE226]						phosphorylation of FAK at Y397 and Y861 sites [7]: inhibited; reduction of tumour burden compared with vehicle-treated controls [8]: 46-64%; cell growth ([9]; in vitro): inhibited cell growth in a time- and dose-dependent manner; enhancement of docetaxel-mediated growth inhibition ([9]; taxane-resistant cell lines): 20 fold; enhancement of docetaxel-mediated growth inhibition ([9]; taxane-sensitive cell lines): 10 fold
CCc1cc(C2CCNCC2)ccc1Nc1ncc(C(F)(F)F)c(CCc2ccccc2CC(N)=O)n1 [Compound 8, 2-(2-(2-(2-((2-Ethyl-4-(piperidin-4-yl)phenyl)amino)-5-(trifluoromethyl)pyrimidin-4-yl)ethyl)phenyl)acetamide]	2480 nM	1180 nM				
CCN1CCC(c2ccc(Nc3ncc(C(F)(F)F)c(CCc4cccc(C(N)=O)c4)n3)c(OC)c2)CC1 [Compound 7]	4930 nM		9.4 nM		13300 nM	
CCc1cc(C2CCN(C)CC2)ccc1Nc1ncc(C(F)(F)F)c(CCc2ccccc2CC(N)=O)n1 [Compound 9, 2-(2-(2-(2-((2-Ethyl-4-(1-methylpiperidin-4-yl)phenyl)amino)-5-(trifluoromethyl)pyrimidin-4-yl)ethyl)phenyl)acetamide]	2900 nM					
COc1cc(N2CCNCC2)ccc1Nc1ncc(C(F)(F)F)c(CCc2ccccc2CC(N)=O)n1 [Compound 1, 2-(2-(2-(2-((2-Methoxy-4-(piperazin-1-yl)phenyl)amino)-5-(trifluoromethyl)pyrimidin-4-yl)ethyl)phenyl)acetamide]	1430 nM		1.9 nM	0.29 nM	275 nM	
COc1cc(C2CCN(C)CC2)ccc1Nc1ncc(C(F)(F)F)c(CCc2cccc(C(N)=O)c2)n1 [Compound 6, 3-(2-(2-((2-Methoxy-4-(1-methylpiperidin-4-yl)phenyl)amino)-5-(trifluoromethyl)pyrimidin-4-yl)ethyl)benzamide]	2240 nM	10400 nM	2.1 nM	2.9 nM		
CN1CCC(c2ccc(Nc3ncc(C(F)(F)F)c(CCc4ccccc4CC(N)=O)n3)c(OC(F)(F)F)c2)CC1 [Compound 11, 2-(2-(2-(2-((4-(1-Methylpiperidin-4-yl)-2-(trifluoromethoxy)phenyl)amino)-5-(trifluoromethyl)pyrimidin-4-yl)ethyl)phenyl)acetamide]	2580 nM	59800 nM	2.2 nM	1.7 nM		
COc1cc(C2CCNCC2)ccc1Nc1ncc(C(F)(F)F)c(CCc2cccc(C(N)=O)c2)n1 [Compound 5, 3-(2-(2-((2-Methoxy-4-(piperidin-4-yl)phenyl)amino)-5-(trifluoromethyl)pyrimidin-4-yl)ethyl)benzamide]	3060 nM		7.2 nM		5750 nM	
NC(=O)Cc1ccccc1CCc1nc(Nc2ccc(C3CCNCC3)cc2OC(F)(F)F)ncc1C(F)(F)F [Compound 10, 2-(2-(2-(2-((4-(Piperidin-4-yl)-2-(trifluoromethoxy)phenyl)amino)-5-(trifluoromethyl)pyrimidin-4-yl)ethyl)phenyl)acetamide]	1690 nM	> 66000 nM	2.7 nM	0.79 nM		
